Calls of active or inactive are those of the source. How the calls were made is not given here.
The compounds below were run against Bcl-2-related protein A1 (Homo sapiens) (UniProt Q16548) (assay: inhibitors of Bim binding to Bfl-1, dose response, biochemical, multiplexed, bead-based flow cytometry (AID 1320; on percent span (inhibition): test concentration not given here)). Settings: Bim peptide-Bfl-1 binding, fluorescence.
Bcl-2-related protein A1 (Homo sapiens), sequence (Q16548 whole entry, looked up): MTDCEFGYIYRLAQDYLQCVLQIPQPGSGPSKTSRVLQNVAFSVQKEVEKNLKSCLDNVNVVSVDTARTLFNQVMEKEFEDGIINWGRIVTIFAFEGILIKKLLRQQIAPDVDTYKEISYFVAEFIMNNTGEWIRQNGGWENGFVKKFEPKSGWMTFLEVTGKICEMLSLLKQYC
`Cc1c(NC2=C(Cl)C(=O)N(c3ccccc3Cl)C2=O)c(=O)n(-c2ccccc2)n1C` showed an EC50 of 6.04 µM. For `Cc1cccc(N2C(S)=C(C#N)C(=O)NC2c2cccs2)c1` (stereo unspecified), the EC50 was “inactive”.

Same assay, conditions: Bim peptide-Bfl-1 binding, fluorescence, stronger effect = higher value
`CC(C)(C)C(=O)NC(NC(=S)Nc1ccc(S(N)(=O)=O)cc1)C(Cl)(Cl)Cl` (stereo unspecified) was tested, and the “percent span (inhibition)” value was “inactive”. `CCSc1ncc(Cl)c(C(=O)Nc2sc3c(c2C(=O)NCc2cccnc2)CCCC3)n1` was tested, and the “percent span (inhibition)” value was “inactive”. For `c1ccc2c(N3CCOCC3)nc(N3CCOCC3)nc2c1`, the “percent span (inhibition)” value was “inactive”. For `Clc1ccc(N=c2ssnc2Cl)nc1`, the “percent span (inhibition)” value was “inactive”. In the case of `CC(=O)NC(=O)Nc1sc(=S)n(C)c1C`, the “percent span (inhibition)” value is reported as “inactive”. `Cc1ccc(C)n1-c1cccc(C(=O)O)c1` was tested, and the “percent span (inhibition)” value was “inactive”. In the case of `CCOc1ccccc1NC(=O)CSc1nnc2ccc(-c3cccnc3)nn12`, the “percent span (inhibition)” value is reported as “inactive”. `COc1cc2[nH]c(=S)nc(NCCCOC(C)C)c2cc1OC` was tested, and the “percent span (inhibition)” value was “inactive”. With `CCOC(=O)C1(CC/C(C)=N\NC(N)=O)CC(C)(C)OC1=O` (stereo unspecified) the “percent span (inhibition)” value was “inactive”. With `CCOC(=O)c1c(NC(=O)c2ccccc2N(C)S(=O)(=O)c2ccccc2)sc2c1CCCC2` the “percent span (inhibition)” value was “inactive”. For `CC1=C2C(CCS2(=O)=O)CC2(C1)C(=O)OC(C)(C)OC2=O` (stereo unspecified), the “percent span (inhibition)” value was “inactive”. `Cc1ccc(-c2cc(C(=O)Nc3cccnc3)c3ccccc3n2)o1` was tested, and the “percent span (inhibition)” value was “inactive”. `COc1ccc(C2=Nn3c(nnc3-c3ccccn3)SC2)cc1OC` was tested, and the “percent span (inhibition)” value was “inactive”. For `O=C(N/N=C/c1ccncc1)c1cccc(NC(=O)c2ccccc2Cl)c1`, the “percent span (inhibition)” value was “inactive”. `O=C(C1=NN[C@@H]2C(=O)N(c3cccc(F)c3)C(=O)[C@H]12)c1ccc2ccccc2n1` was tested, and the “percent span (inhibition)” value was “inactive”. In the case of `Cc1ccc(SCCC(=O)Nc2ccc(Br)c(C)c2)cc1`, the “percent span (inhibition)” value is reported as “inactive”. For `COc1ccc(/C=C2\SC(=O)NC2=S)cc1OC`, the “percent span (inhibition)” value was “inactive”. In the case of `Cc1cccc(N2CCN(C(=S)Nc3ccc4nc(N5CCN(C)CC5)cc(C)c4c3)CC2)c1C`, the “percent span (inhibition)” value is reported as “inactive”. For `S=C1NC2=C(CCC/C2=C\c2ccccc2)C(c2ccccc2)N1` (stereo unspecified), the “percent span (inhibition)” value was “inactive”. For `CCc1nnc(NC(=O)CSc2nnc(COc3ccc(C)cc3)n2-c2ccccc2)s1`, the “percent span (inhibition)” value was “inactive”. In the case of `Cc1ccc(-c2nnc(Cc3ccc(Cl)cc3)o2)cc1`, the “percent span (inhibition)” value is reported as “inactive”. For `COc1ccc(Cl)cc1-n1c(C)cc(C=O)c1C`, the “percent span (inhibition)” value was “inactive”. For `Cc1nn(-c2ccc(Cl)c(Cl)c2)c(C)c1C(=O)O`, the “percent span (inhibition)” value was “inactive”. For `Cc1nc2cc(F)ccc2n1C1CCN(C(=O)c2c(F)cccc2F)CC1`, the “percent span (inhibition)” value was “inactive”. In the case of `CCOc1cc(/C=N/NC(N)=O)ccc1OCC(=O)Nc1ccc(C)c(C)c1`, the “percent span (inhibition)” value is reported as “inactive”. With `O=C(O)c1ccccc1NSc1ccccc1[N+](=O)[O-]` the “percent span (inhibition)” value was “inactive”. For `CCOC(=O)CSc1nnc(-c2cccc(Cl)c2)n1CC`, the “percent span (inhibition)” value was “inactive”. `COc1ccc(OC)c2sc(NC(=O)c3ccc(Br)s3)nc12` was tested, and the “percent span (inhibition)” value was “inactive”. For `CN1N=C(C(=O)N2CCCC(C(=O)c3cccc(C(F)(F)F)c3)C2)CCC1=O` (stereo unspecified), the “percent span (inhibition)” value was “inactive”. With `COc1ccc(NC(=O)c2c(F)cccc2F)cc1S(=O)(=O)Nc1ccc(Br)cc1` the “percent span (inhibition)” value was “inactive”. `Cc1cc(Cl)c(S(=O)(=O)NCC2CCCO2)cc1OCC(N)=O` (stereo unspecified) was tested, and the “percent span (inhibition)” value was “inactive”. With `COc1ccc2nc(C)cc(SCC(=O)N/N=C/c3ccc(O)cc3O)c2c1` the “percent span (inhibition)” value was “inactive”. For `Cc1ccccc1/C=N/Nc1ccnc2cc(Cl)ccc12`, the “percent span (inhibition)” value was “inactive”. In the case of `CNc1ccccc(C(=O)/C=C/c2ccccc2OC)c1=O`, the “percent span (inhibition)” value is reported as “inactive”. In the case of `Cc1ccc(OCc2cn3cccnc3n2)cc1`, the “percent span (inhibition)” value is reported as “inactive”. With `CN(C)c1ccc(C(=O)/C=C/c2ccc(Br)cc2)cc1` the “percent span (inhibition)” value was “inactive”. In the case of `CCCCCCn1nc(C(=O)Nc2nc3c(s2)CCCC3)c2ccccc2c1=O`, the “percent span (inhibition)” value is reported as “inactive”. `Cc1cc(C)n(CC(=O)N/N=C/c2cccc([N+](=O)[O-])c2)n1` was tested, and the “percent span (inhibition)” value was “inactive”. `CCOc1cc(CNc2ccc(N3CCCCC3)cc2)cc(Br)c1OCC(=O)NC(C)(C)C` was tested, and the “percent span (inhibition)” value was “inactive”. With `Cc1ccc(-c2cc(C(=O)Nc3ccccc3C)c3ccccc3n2)o1` the “percent span (inhibition)” value was “inactive”. `Cc1cc(NC(=O)CCCC(=O)NCc2ccccc2)no1` was tested, and the “percent span (inhibition)” value was “inactive”. For `COP(=O)(CC(=O)O)c1ccccc1` (stereo unspecified), the “percent span (inhibition)” value was “inactive”. For `CC(=O)Nc1ccc2nc(CN3CCN(CC(C)C)C(CCO)C3)ccc2c1` (stereo unspecified), the “percent span (inhibition)” value was “inactive”. With `CCSc1ncnc2sc(C)c(C)c12` the “percent span (inhibition)” value was “inactive”. In the case of `CCOC(=O)c1nc(Nc2ccc(N3CCC(C)CC3)cc2)c2ccccc2n1`, the “percent span (inhibition)” value is reported as “inactive”. In the case of `Clc1ccc2c(N/N=C/c3ccc(Br)cc3)ccnc2c1`, the “percent span (inhibition)” value is reported as “inactive”. For `Nc1cccc(-c2cn3cccnc3n2)c1`, the “percent span (inhibition)” value was “inactive”. `Cc1cc(C)c2c(N)c3cccc(C)c3nc2n1` was tested, and the “percent span (inhibition)” value was “inactive”. For `O=C(OCC(=O)c1ccc[nH]1)c1ccccc1`, the “percent span (inhibition)” value was “inactive”. With `CCN(CC)c1ccc(NC(=O)c2ccccc2)cc1S(=O)(=O)Nc1ccccc1OC` the “percent span (inhibition)” value was “inactive”. For `CC1Cc2ccccc2N1C(=O)CSc1nnnn1-c1ccc2c(c1)OCCO2` (stereo unspecified), the “percent span (inhibition)” value was “inactive”. In the case of `CN(CC(=O)O/N=C(\N)c1ccc([N+](=O)[O-])cc1)S(=O)(=O)c1ccccc1`, the “percent span (inhibition)” value is reported as “inactive”. With `O=C(CNC(=O)c1ccc(S(=O)(=O)N2CCCC2)cc1)N/N=C/c1ccc(Cl)cc1Cl` the “percent span (inhibition)” value was “inactive”. In the case of `O=C(Nc1ccc(Cl)cn1)Nc1ccccc1F`, the “percent span (inhibition)” value is reported as “inactive”. `Fc1ccccc1-n1cc(-c2ccccc2)[nH]c1=S` was tested, and the “percent span (inhibition)” value was “inactive”. In the case of `O=C1NCCN1C(=O)N(c1ccccc1)c1ccccc1`, the “percent span (inhibition)” value is reported as “inactive”. With `COC(=O)CSc1nccc(-c2cccs2)n1` the “percent span (inhibition)” value was “inactive”. In the case of `Cc1ccc(S(=O)(=O)N(C)CC(=O)N2CCc3ccccc32)cc1`, the “percent span (inhibition)” value is reported as “inactive”. `Cc1cc(C)nc(/N=c2/ssnc2Cl)c1` was tested, and the “percent span (inhibition)” value was “inactive”. In the case of `O=C(CSc1ccc(-c2ccccc2)nn1)NCc1ccco1`, the “percent span (inhibition)” value is reported as “inactive”. With `Nc1ccc(-c2cn3cccnc3n2)cc1` the “percent span (inhibition)” value was “inactive”. In the case of `S=C(Nc1ccccc1)N1CCn2cccc2C1c1cccnc1` (stereo unspecified), the “percent span (inhibition)” value is reported as “inactive”. In the case of `CCOc1cc(/C=N/NC(=O)c2cccs2)cc([N+](=O)[O-])c1O`, the “percent span (inhibition)” value is reported as “inactive”. In the case of `CN(C)c1ccc(/C=C2/SC(=O)N(CCN=C3NS(=O)(=O)c4ccccc43)C2=O)cc1`, the “percent span (inhibition)” value is reported as “inactive”. For `CCOc1ccc(CNc2ccc(N3CCCC3)cc2)cc1`, the “percent span (inhibition)” value was “inactive”. `O=C(NCCc1ccccc1)c1ccc2nc(-c3ccco3)c(-c3ccco3)nc2c1` was tested, and the “percent span (inhibition)” value was “inactive”. For `CCOC(=O)c1cccc(Nc2ncnc3ccccc23)c1`, the “percent span (inhibition)” value was “inactive”. `Cc1ccc(S(=O)(=O)NC(=O)COc2ccccc2C)cc1` was tested, and the “percent span (inhibition)” value was “inactive”. In the case of `Cn1c(=O)[nH]c(=O)c2c1nc(N1CCOCC1)n2CCSc1nc2ccccc2[nH]1`, the “percent span (inhibition)” value is reported as “inactive”. In the case of `Cc1ccc(-c2cc(-c3ccccc3Cl)c(C#N)c(N)n2)o1`, the “percent span (inhibition)” value is reported as “inactive”. For `O=C(COc1ccc(Br)cc1CNC1CCCCC1)NCCc1ccccc1`, the “percent span (inhibition)” value was “inactive”. For `Cc1ccc(N=Cc2c(O)n(-c3ccc4c(c3)OCO4)c(=O)c3ccccc23)cc1`, the “percent span (inhibition)” value was “inactive”. `COc1cc(/C=N/Nc2nc3c(c(=O)n(C)c(=O)n3C)n2Cc2ccccc2)ccc1OC(=O)c1ccco1` was tested, and the “percent span (inhibition)” value was “inactive”. With `O=C(/C=C\c1ccc(-c2ccccc2)o1)c1ccccc1` the “percent span (inhibition)” value was “inactive”. `O=C(O)c1ccc(NS(=O)(=O)c2ccc3c(c2)C(=O)c2ccccc2C3=O)cc1` was tested, and the “percent span (inhibition)” value was “inactive”. With `Cc1csc(Nc2ccccc2C(F)(F)F)n1` the “percent span (inhibition)” value was “inactive”. For `COc1ccc(NC(=O)c2cccs2)cc1`, the “percent span (inhibition)” value was “inactive”. `Fc1ccccc1/C=C1\CCCC2=C1NC(=S)NC2c1ccccc1F` (stereo unspecified) was tested, and the “percent span (inhibition)” value was “inactive”. With `CCN1CCN(c2ccc(NC(=O)c3ccc4c(c3)[nH]c(=O)n4Cc3ccc(OC)cc3)cc2)CC1` the “percent span (inhibition)” value was “inactive”. With `O=C1c2ccccc2-c2onc3ccc(NCCCn4ccnc4)c1c23` the “percent span (inhibition)” value was “inactive”. With `O=C(Cc1ccccc1)N/N=C/c1cccn1-c1ccc([N+](=O)[O-])cc1` the “percent span (inhibition)” value was “inactive”. With `Cc1ccc(C2=N/C(=C/c3cccs3)C(=O)N2Nc2ccccc2)cc1` the “percent span (inhibition)” value was “inactive”. For `O=C(CSc1ccc2nnc(-c3ccccn3)n2n1)Nc1nccs1`, the “percent span (inhibition)” value was “inactive”. With `O=C(COCC(=O)NCc1ccccc1)NCc1ccccc1` the “percent span (inhibition)” value was “inactive”. With `COc1cc(NC(=S)NC(=O)c2cc(C)cc(C)c2)ccc1NC(=O)c1cccs1` the “percent span (inhibition)” value was “inactive”. `CSc1ccccc1NC(=O)CN(C)CC(=O)Nc1ccc(N2CCOCC2)cc1` was tested, and the “percent span (inhibition)” value was “inactive”. With `Cc1ccc(NC(=O)c2cc(S(=O)(=O)NCCC3=CCCCC3)ccc2F)cc1F` the “percent span (inhibition)” value was “inactive”. With `COCCN=c1scc(-c2cccs2)n1/N=C/c1ccc(O)c(O)c1O` the “percent span (inhibition)” value was “inactive”. In the case of `COc1ccc(OC)c(NC(=O)COC(=O)c2cc3c(s2)CCC3)c1`, the “percent span (inhibition)” value is reported as “inactive”. `Cc1nnc2ccc(-c3cccc(NC(=O)c4ccco4)c3)nn12` was tested, and the “percent span (inhibition)” value was “inactive”. With `COc1cccc(/C=N/NC(=O)c2cc3cc([N+](=O)[O-])ccc3s2)c1O` the “percent span (inhibition)” value was “inactive”. With `COC(=O)Cc1ccc(NC(=S)N2CCN(c3cccc(O)c3)CC2)cc1` the “percent span (inhibition)” value was “inactive”. In the case of `Nc1ccc(N2CCCCCC2)cc1`, the “percent span (inhibition)” value is reported as “inactive”. With `COc1ccc(C2CN(C)CC2C(=O)c2ccc(F)cc2)cc1Cl` (stereo unspecified) the “percent span (inhibition)” value was “inactive”. In the case of `COc1cccc2c(SCC(=O)N/N=C/c3ccc(O)c(O)c3)cc(C)nc12`, the “percent span (inhibition)” value is reported as “inactive”. With `O=C(NC1=NCCS1)NC12CC3CC(CC(C3)C1)C2` the “percent span (inhibition)” value was “inactive”. In the case of `Cc1cc(N2CCN(C)CC2)nc2ccc(NC(=S)N3CCCCC3)cc12`, the “percent span (inhibition)” value is reported as “inactive”. With `CCc1ccc(/C=C/C(=O)c2cc(Br)ccc(=O)c2O)cc1` the “percent span (inhibition)” value was “inactive”. In the case of `O=C(COC(=O)CCCN=C1NS(=O)(=O)c2ccccc21)NC(=O)NC1CCCC1`, the “percent span (inhibition)” value is reported as “inactive”.
